The source of these data is article PMC6130714, “The α-amylase and α-glucosidase inhibitory activities of the dichloromethane extracts and constituents of Ferulago bracteata roots” (Pharmaceutical Biology, 2017).

For assay [1], the target named is α-Glucosidase. Description: α-Glucosidase inhibitory activity (p-NPG substrate, 96-well plate). Format: biochemical. Conditions: for α-Glucosidase inhibition (%): mean of three replicates. As for the experimental part:
α-Glucosidase inhibitory activity was established by using a 96-well microtiter plate in accordance with the described method (Tao et al. […] Samples were dissolved in dimethyl sulfoxide (DMSO) and all samples (20 µL) together with the enzyme solution (20 µL) were mixed in the plate. Afterwards, the substrate (40 µL) was added for initiation of the reaction and the mixture was incubated at 37 °C for 40 min. After incubation is complete, 0.2 M sodium carbonate (80 µL) in phosphate buffer (pH 6.8) was added to all wells in order to quench the reaction. The amount of released p-nitrophenol (pNP) was measured at 405 nm using a 96-well microplate reader. Each assay for all samples was carried out in triplicate. […] All results are expressed as mean ± SE and differences between means were statistically analyzed using one-way analysis of ANOVA followed by Bonferroni’s complementary analysis, with p < 0.05 considered to indicate statistical significance.

For assay [2], the target named is α-Glucosidase. Conditions: cited from earlier work; for α-glucosidase inhibitory activity (in words): compared to acarbose, ref Luo et al. [2012].
In a further assay the test system is α-amylase. Description: α-Amylase inhibitory activity (starch, dinitrosalicylic acid). The class given is biochemical. The settings on record: concentration 1 mg/mL. As for the experimental part:
α-Amylase inhibitory activity was established in accordance with the reported method (Nampoothiri et al. [2011]) with slight modifications. One percent starch solution (100 µL) in 20 mM sodium phosphate buffer (pH 6.9 with 6 mM sodium chloride) and sample solutions (100 µL) were incubated at 25 °C for 10 min in 24-well microplate. After incubation, 100 µL α-amylase solution (0.5 mg/mL) was added to each well and the reaction mixtures were incubated at 25 °C for 10 min. In order to stop the reaction after the incubation, dinitrosalicylic acid color reagent (200 µL) was added and then the microplate was incubated in a boiling water bath for 5 min and cooled at room temperature. 50 µL was taken from each well and then was added to 96-well microplate. The reaction mixture was diluted by adding 200 µL distilled water and absorbance was measured at 540 nm. Each assay for all samples was carried out in triplicate. Percentage inhibitions of all samples were calculated using the equation at following: Inhibition %=1-ΔAsample /ΔAcontrol×100
All results are expressed as mean ± SE and differences between means were statistically analyzed using one-way analysis of ANOVA followed by Bonferroni’s complementary analysis, with p < 0.05 considered to indicate statistical significance.

In brackets after ≈: the same amount, converted by molar mass. Like-named read-outs stand apart in the source and are kept apart here.

`CC(C)=CC(=O)OC(Cc1cc2ccc(=O)oc2cc1O)C(C)(C)O` (centres unmarked) [Grandivitinol, grandivitinol]: the “IC50 value (α-glucosidase)” value at α-Glucosidase [1] came to 20010 µg/mL (≈ 57.8 mM). Further, the “α-Glucosidase inhibition (%)” value in the assay on α-Glucosidase [1] (concentration 2000 µg/mL) is given as 7.84 ± 0.71%; with α-Glucosidase [1] (concentration 5000 µg/mL) it was 12.30 ± 0.36%.
In the case of `O=c1ccc2ccc(O)cc2o1` [Umbelliferone, umbelliferone], the “IC50 value (α-glucosidase)” value on α-Glucosidase [1] was determined as 9320 µg/mL (≈ 57.5 mM). For the same compound, the “α-Glucosidase inhibition (%)” value is reported as 8.84 ± 0.02% with α-Glucosidase [1] (concentration 2000 µg/mL) and 10.27 ± 0.49% in the assay on α-Glucosidase [1] (concentration 5000 µg/mL). The “α-glucosidase IC50 value” at α-Glucosidase [2] (at 0.5 mg/mL, ref Ayyasamy & Rajamanickam 2015) was 547 µg/mL.
With `CC(C)=CC(=O)OC(C)(C)C1Cc2cc3ccc(=O)oc3cc2O1` (centres unmarked) [Prantschimgin, prantschimgin], the “IC50 value (α-glucosidase)” value against α-Glucosidase [1] worked out at 1860 µg/mL (≈ 5.66 mM). In addition, the “α-Glucosidase inhibition (%)” value in the assay on α-Glucosidase [1] (concentration 2000 µg/mL) is given as 51.95 ± 0.01%; in the assay with α-Glucosidase [1] (concentration 5000 µg/mL), 68.23 ± 0.39%.
For the compound `C[C@H]1O[C@H](O[C@H]2[C@H](O)[C@@H](O)[C@@H](O[C@H]3[C@H](O)[C@@H](O)C(O)O[C@@H]3CO)O[C@@H]2CO)[C@H](O)[C@@H](O)[C@@H]1N[C@H]1C=C(CO)[C@@H](O)[C@H](O)[C@H]1O` (some centres unmarked) [Acarbose, acarbose, reference compound], the “α-Glucosidase inhibition (%)” value in the assay with α-Glucosidase [1] (concentration 2000 µg/mL) is 29.43 ± 1.71%; with α-Glucosidase [1] (concentration 5000 µg/mL), 50.81 ± 2.51%. Besides, in the assay with α-amylase, the α-amylase inhibition is listed as 82.28%.
As for `CC(C)(OC(=O)c1ccccc1)[C@@H]1Cc2cc3ccc(=O)oc3cc2O1` [Felamidin, felamidin], on α-Glucosidase [1], the “IC50 value (α-glucosidase)” value is 420 µg/mL (≈ 1.2 mM). The entries for the “α-Glucosidase inhibition (%)” value in the assay on α-Glucosidase [1] (concentration 2000 µg/mL) and in the assay on α-Glucosidase [1] (concentration 5000 µg/mL) were 64.93 ± 2.06% and 94.57 ± 0.05%, respectively. Further, the “times more effective than acarbose against α-glucosidase” value in the assay with α-Glucosidase [1] (ratio of IC50 values vs acarbose) was determined as 11 times.
In the case of `COc1c2occc2cc2ccc(=O)oc12` [Xanthotoxin, xanthotoxin], on α-Glucosidase [1], the “IC50 value (α-glucosidase)” value came out at 5380 µg/mL (≈ 24.9 mM). In addition, the “α-Glucosidase inhibition (%)” value in the assay on α-Glucosidase [1] (concentration 2000 µg/mL) is reported as 37.95 ± 8.64%; with α-Glucosidase [1] (concentration 5000 µg/mL) it was 45.76 ± 4.82%. Besides, the “α-glucosidase inhibitory activity (in words)” value with α-Glucosidase [2] is “too low to compare to that of acarbose”.
As to `COc1ccc2ccc(=O)oc2c1CC=C(C)C` [Osthole, osthole], the “IC50 value (α-glucosidase)” value against α-Glucosidase [1] came out at 950 µg/mL (≈ 3.89 mM). Moreover, the “α-Glucosidase inhibition (%)” value amounted to 84.31 ± 1.72% in the assay on α-Glucosidase [1] (concentration 2000 µg/mL) and 93.31 ± 0.29% in the assay with α-Glucosidase [1] (concentration 5000 µg/mL).
With `COc1cc2oc(=O)ccc2cc1CC=C(C)C` [Suberosin, suberosin], the “IC50 value (α-glucosidase)” value against α-Glucosidase [1] amounted to 890 µg/mL (≈ 3.64 mM). The “α-Glucosidase inhibition (%)” value was found to be 81.58 ± 1.15% in the assay with α-Glucosidase [1] (concentration 2000 µg/mL) and 87.95 ± 1.07% in the assay with α-Glucosidase [1] (concentration 5000 µg/mL).
For `CC(C)=CCOc1c2occc2cc2ccc(=O)oc12` [Imperatorin, imperatorin], on α-Glucosidase [1], the “IC50 value (α-glucosidase)” value turned out to be 1230 µg/mL (≈ 4.55 mM). Moreover, the “α-Glucosidase inhibition (%)” value in the assay with α-Glucosidase [1] (concentration 2000 µg/mL) was 63.07 ± 0.69%; with α-Glucosidase [1] (concentration 5000 µg/mL), 88.97 ± 0.88%; with α-Glucosidase [2] (at 1000 µg/mL, ref Shalaby et al. [2014]), 69.66 ± 3.67%. Besides, in the assay on α-Glucosidase [2], the “α-glucosidase inhibitory activity (in words)” value is reported as “too low to compare to that of acarbose”.
Regarding `CC(C)(O)C(Cc1cc2ccc(=O)oc2cc1O)OC(=O)c1ccccc1` (centres unmarked) [Peucedanol-2'-benzoate, peucedanol-2′-benzoate], the “α-Glucosidase inhibition (%)” value in the assay with α-Glucosidase [1] (concentration 2000 µg/mL) was 66.86 ± 0.37%; with α-Glucosidase [1] (concentration 5000 µg/mL) it was 77.22 ± 0.44%.
For the compound `COc1c2ccoc2cc2oc(=O)ccc12` [Bergapten, bergapten], the “IC50 value (α-glucosidase)” value at α-Glucosidase [1] worked out at 6120 µg/mL (≈ 28.3 mM). Moreover, the figures for the “α-Glucosidase inhibition (%)” value with α-Glucosidase [1] (concentration 2000 µg/mL) and with α-Glucosidase [1] (concentration 5000 µg/mL) were 39.71 ± 2.44% and 42.26 ± 0.43%, respectively. For the same compound, the “α-glucosidase inhibitory activity (in words)” value with α-Glucosidase [2] is listed as “too low to compare to that of acarbose”.
